These results are taken from article PMC7206119, “RIP1 inhibition blocks inflammatory diseases but not tumor growth or metastases” (Cell Death and Differentiation, 2019).

Targets include FLT3(D835Y) (Homo sapiens, UniProt P36888, D835Y); ITK (Homo sapiens, UniProt Q08881); SGK2 (Homo sapiens, UniProt Q9HBY8); ROCK1 (Homo sapiens, UniProt Q13464); PLK1 (Homo sapiens, UniProt P53350); RET(V804L) (Homo sapiens, UniProt P07949, V804L); EPHB3 (Homo sapiens, UniProt P54753); PIK3CA(H1047Y) (Homo sapiens, UniProt P42336, H1047Y); MKNK1 (Homo sapiens, UniProt Q9BUB5); PIK3CB (Homo sapiens, UniProt P42338); EPHA5 (Homo sapiens, UniProt P54756); DAPK1 (Homo sapiens, UniProt P53355); BRSK1 (Homo sapiens, UniProt Q8TDC3); CSF1R (Homo sapiens, UniProt P07333).

Experiment in all cases: biochemical
What all share (parameters): DiscoverX kinase panel, active-site competition binding (KINOMEscan type), percent of control at one concentration
What all share (conditions): competition binding, percent of control

Experiment [1] has as its target T1, ABL1(F317L)-nonphosphorylated (Homo sapiens, UniProt P00519, F317L).
T1 construct: nonphosphorylated

The next experiment deals with T2, ICK (Homo sapiens, UniProt Q9UPZ9).
T2 construct: gene CILK1

For experiment [2], the target named is T3, ABL1(H396P)-nonphosphorylated (Homo sapiens, UniProt P00519, H396P).
T3 construct: nonphosphorylated

The target in a further experiment is T4, ABL1-nonphosphorylated (Homo sapiens, UniProt P00519).
T4 construct: nonphosphorylated

The target of a further experiment is T5, MST2 (Homo sapiens, UniProt Q13188).
T5 construct: gene STK3

The target of another experiment is T6, BIKE (Homo sapiens, UniProt Q9NSY1).
T6 construct: gene BMP2K

Another experiment concerns the target T7, PKAC-beta (Homo sapiens, UniProt P22694).
T7 construct: gene PRKACB

Sequence of EPHB3 (P54753 whole entry): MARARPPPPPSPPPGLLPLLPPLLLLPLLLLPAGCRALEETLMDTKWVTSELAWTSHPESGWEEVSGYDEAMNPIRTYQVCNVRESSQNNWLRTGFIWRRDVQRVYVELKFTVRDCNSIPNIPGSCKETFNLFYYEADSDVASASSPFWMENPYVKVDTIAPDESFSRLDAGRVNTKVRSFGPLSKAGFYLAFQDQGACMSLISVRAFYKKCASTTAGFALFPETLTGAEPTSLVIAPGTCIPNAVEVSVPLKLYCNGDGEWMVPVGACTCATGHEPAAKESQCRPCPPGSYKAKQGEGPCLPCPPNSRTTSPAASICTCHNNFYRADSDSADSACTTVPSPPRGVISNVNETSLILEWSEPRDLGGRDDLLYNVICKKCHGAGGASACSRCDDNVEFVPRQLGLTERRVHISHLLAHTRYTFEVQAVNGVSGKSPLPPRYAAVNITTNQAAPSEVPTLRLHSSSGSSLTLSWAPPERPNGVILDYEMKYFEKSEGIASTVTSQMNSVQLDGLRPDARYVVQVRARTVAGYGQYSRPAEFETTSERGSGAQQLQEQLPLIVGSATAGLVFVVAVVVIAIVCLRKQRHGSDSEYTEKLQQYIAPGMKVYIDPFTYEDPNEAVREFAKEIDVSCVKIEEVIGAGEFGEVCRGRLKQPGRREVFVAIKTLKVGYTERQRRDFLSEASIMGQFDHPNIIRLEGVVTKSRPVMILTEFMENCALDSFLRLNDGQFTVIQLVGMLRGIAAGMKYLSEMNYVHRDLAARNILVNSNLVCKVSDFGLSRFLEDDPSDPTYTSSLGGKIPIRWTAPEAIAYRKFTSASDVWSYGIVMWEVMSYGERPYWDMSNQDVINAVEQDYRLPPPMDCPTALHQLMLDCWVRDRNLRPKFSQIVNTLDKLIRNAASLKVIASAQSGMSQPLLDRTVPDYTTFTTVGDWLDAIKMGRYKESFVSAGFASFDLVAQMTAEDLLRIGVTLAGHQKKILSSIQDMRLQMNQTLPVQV
Sequence of BRSK1 (Q8TDC3 whole entry): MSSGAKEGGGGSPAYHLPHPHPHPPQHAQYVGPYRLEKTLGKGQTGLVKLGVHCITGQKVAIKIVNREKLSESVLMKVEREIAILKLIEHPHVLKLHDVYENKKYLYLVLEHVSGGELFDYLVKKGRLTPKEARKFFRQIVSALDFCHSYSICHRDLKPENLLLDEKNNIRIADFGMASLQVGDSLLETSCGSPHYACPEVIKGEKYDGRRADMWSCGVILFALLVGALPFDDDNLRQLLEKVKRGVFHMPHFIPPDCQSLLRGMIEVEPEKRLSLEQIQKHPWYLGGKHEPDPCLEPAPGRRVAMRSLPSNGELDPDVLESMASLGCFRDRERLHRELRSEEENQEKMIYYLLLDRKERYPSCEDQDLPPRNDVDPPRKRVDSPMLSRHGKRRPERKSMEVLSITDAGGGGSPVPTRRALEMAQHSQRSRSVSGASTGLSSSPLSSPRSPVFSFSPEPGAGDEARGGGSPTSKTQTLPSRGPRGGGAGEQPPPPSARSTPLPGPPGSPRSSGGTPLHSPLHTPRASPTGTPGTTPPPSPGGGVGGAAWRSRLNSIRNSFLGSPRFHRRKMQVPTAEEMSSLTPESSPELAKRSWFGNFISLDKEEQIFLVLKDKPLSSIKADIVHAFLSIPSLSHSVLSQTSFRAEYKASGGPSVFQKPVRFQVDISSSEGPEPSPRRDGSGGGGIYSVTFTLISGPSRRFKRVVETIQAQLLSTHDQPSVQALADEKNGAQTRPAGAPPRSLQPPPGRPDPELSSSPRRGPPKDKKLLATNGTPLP
T5 sequence (Q13188 whole entry): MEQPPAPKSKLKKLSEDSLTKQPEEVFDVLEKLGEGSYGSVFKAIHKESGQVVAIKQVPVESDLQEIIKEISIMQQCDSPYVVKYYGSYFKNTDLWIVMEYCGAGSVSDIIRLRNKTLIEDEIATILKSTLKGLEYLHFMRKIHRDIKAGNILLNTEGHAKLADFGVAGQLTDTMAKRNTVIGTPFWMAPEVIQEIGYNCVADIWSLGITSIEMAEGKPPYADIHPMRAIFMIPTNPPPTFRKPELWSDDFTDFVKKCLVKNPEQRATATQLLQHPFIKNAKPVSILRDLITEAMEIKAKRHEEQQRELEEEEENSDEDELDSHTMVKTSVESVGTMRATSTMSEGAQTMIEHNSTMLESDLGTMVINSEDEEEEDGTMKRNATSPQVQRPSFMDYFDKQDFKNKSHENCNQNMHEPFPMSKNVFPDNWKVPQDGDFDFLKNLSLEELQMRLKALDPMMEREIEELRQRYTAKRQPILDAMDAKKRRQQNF
Sequence of RET(V804L) (P07949 whole entry V804L): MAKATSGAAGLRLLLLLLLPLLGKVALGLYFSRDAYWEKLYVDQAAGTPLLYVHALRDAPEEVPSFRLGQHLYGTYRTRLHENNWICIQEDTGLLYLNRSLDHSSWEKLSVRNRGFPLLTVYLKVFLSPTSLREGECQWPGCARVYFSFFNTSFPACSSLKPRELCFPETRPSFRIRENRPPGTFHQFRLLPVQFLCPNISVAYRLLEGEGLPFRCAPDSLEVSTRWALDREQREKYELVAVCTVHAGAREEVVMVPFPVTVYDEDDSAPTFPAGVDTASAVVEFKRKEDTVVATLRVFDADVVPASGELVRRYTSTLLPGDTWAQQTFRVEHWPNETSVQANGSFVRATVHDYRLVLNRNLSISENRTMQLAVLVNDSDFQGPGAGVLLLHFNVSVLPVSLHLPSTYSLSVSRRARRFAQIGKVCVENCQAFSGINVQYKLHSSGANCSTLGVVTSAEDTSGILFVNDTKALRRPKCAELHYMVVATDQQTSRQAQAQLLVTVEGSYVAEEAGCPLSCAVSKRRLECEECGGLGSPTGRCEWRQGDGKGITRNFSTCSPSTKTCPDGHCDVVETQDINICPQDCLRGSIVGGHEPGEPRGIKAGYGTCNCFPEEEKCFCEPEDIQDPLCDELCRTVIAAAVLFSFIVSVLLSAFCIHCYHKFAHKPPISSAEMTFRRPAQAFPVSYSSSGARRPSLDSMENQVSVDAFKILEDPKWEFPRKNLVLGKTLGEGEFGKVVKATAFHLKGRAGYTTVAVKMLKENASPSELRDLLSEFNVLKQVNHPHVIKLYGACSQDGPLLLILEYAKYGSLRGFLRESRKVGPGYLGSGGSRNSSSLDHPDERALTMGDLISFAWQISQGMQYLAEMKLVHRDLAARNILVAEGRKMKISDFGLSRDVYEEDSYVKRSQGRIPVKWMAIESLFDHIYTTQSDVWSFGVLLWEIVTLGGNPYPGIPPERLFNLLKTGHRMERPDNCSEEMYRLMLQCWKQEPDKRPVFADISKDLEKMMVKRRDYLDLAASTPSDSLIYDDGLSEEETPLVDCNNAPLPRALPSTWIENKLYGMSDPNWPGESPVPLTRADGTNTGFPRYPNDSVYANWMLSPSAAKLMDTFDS
T6 sequence (Q9NSY1 whole entry): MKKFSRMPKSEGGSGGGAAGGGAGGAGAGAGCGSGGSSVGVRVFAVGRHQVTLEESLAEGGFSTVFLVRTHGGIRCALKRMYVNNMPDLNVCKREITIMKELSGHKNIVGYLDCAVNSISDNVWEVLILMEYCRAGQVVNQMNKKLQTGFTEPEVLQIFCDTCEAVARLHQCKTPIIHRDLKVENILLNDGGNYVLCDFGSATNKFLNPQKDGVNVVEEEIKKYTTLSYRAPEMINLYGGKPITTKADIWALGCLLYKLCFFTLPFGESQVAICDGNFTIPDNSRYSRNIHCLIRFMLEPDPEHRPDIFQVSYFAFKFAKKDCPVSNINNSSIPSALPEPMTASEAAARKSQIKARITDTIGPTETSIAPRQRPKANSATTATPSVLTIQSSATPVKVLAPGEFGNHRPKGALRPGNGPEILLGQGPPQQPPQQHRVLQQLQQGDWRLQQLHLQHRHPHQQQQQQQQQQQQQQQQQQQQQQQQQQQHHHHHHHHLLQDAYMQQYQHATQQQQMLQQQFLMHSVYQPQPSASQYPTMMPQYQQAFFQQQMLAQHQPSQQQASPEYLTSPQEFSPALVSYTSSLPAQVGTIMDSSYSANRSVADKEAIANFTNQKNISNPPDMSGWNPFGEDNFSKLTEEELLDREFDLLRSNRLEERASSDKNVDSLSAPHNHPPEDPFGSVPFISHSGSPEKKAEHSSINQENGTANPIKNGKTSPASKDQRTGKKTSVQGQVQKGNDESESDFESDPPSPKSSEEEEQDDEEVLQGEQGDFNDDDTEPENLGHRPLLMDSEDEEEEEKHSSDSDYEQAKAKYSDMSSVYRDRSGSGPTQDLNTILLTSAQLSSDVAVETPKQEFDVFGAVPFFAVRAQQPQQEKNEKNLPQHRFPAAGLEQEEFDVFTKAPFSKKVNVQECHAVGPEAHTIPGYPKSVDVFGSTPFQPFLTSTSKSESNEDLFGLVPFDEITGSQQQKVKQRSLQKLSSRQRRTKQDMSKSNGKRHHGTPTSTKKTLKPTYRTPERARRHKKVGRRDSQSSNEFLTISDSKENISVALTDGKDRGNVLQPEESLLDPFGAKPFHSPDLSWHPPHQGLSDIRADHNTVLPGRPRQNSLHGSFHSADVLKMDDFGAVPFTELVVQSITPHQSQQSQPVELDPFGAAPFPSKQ
Sequence of SGK2 (Q9HBY8 whole entry): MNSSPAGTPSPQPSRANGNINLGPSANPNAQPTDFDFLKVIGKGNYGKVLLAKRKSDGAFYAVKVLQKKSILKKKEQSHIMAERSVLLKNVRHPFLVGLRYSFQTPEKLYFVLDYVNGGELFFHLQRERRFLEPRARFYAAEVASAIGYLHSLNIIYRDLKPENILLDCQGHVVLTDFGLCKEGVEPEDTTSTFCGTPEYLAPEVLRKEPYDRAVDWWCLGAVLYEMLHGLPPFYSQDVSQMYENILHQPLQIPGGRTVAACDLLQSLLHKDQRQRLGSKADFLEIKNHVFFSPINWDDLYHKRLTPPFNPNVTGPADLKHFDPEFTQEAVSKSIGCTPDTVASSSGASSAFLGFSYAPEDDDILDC

In the case of `COc1cc2c(cn1)N(C)C(=O)[C@@H](NC(=O)c1nc3n(n1)[C@H](c1ccccc1)CC3)CC2` [GNE684, (S)-N-((S)-7-methoxy-1-methyl-2-oxo-2,3,4,5-tetrahydro-1H-pyrido[3,4-b]azepin-3-yl)-5-phenyl-6,7-dihydro-5H-pyrrolo[1,2-b][1,2,4]triazole-2-carboxamide], the remaining binding at 10 µM on FLT3(D835Y) was 100%; in [1], 79%; at ICK, 93%; in [2] it was 69%; on ITK, 100%; at SGK2, 99%. The remaining binding at 10 µM on ROCK1 was 100%; at ABL1-nonphosphorylated, 67%; on MST2, 100%; at PLK1, 79%; on RET(V804L), 91%; at EPHB3, 100%. For the same molecule, the remaining binding at 10 µM at BIKE is 100%; at PIK3CA(H1047Y), 93%; on MKNK1, 100%; at PIK3CB it was 100%; on PKAC-beta, 72%; at EPHA5 it was 100%. Also, the remaining binding at 10 µM at DAPK1 was determined as 88%; at BRSK1, 100%; on CSF1R it was 100%.
